{"source": "patent US8735414B2", "about": "(priority 2009, dated 2014)", "key": {"[1]": {"tested_on": "bicistronic HCV replicon (replicon RNA, GenBank Accession No. AJ242654)", "assay": "HCV Replicon Assay", "type": "cell-based", "details": "Hepatitis C virus, 72 h, read-out: Replicon IC50"}}, "data": [{"smiles": "Cc1ccc2c(c1)c(C#N)c(-c1ccc(S(=O)(=O)NC(C)(C)C(F)(F)F)cn1)n2C1CCCC1", "note": "[compound 607, 6-(3-cyano-1-cyclopentyl-5-methyl-1H-indol-2-yl)-N-(1,1,1-trifluoro-2-methylpropan-2-yl)pyridine-3-sulfonamide]", "values": [{"measurement": "IC50", "setting": "[1]", "result": "< 500", "unit": "nM"}, {"measurement": "melting point", "result": "176 to 181", "unit": "°C"}]}, {"smiles": "Cc1cc2c(cc1F)c(C#N)c(-c1ccc(S(=O)(=O)N[C@H](C)C(F)(F)F)cn1)n2C1CCC1", "note": "[compound 609, 6-(3-cyano-1-cyclobutyl-5-fluoro-6-methyl-1H-indol-2-yl)-N-[(2R)-1,1,1-trifluoropropan-2-yl]pyridine-3-sulfonamide]", "values": [{"measurement": "IC50", "setting": "[1]", "result": "< 500", "unit": "nM"}, {"measurement": "melting point", "result": "211 to 214", "unit": "°C"}]}, {"smiles": "N#Cc1c(-c2ncc(S(=O)(=O)NC(CF)CF)cn2)n(-c2ccccc2)c2cc(OC(F)F)ccc12", "note": "[compound 610, 2-[3-cyano-6-(difluoromethoxy)-1-phenyl-1H-indol-2-yl]-N-(1,3-difluoropropan-2-yl)pyrimidine-5-sulfonamide]", "values": [{"measurement": "IC50", "setting": "[1]", "result": "< 500", "unit": "nM"}, {"measurement": "melting point", "result": "206 to 208", "unit": "°C"}]}, {"smiles": "C[C@H](NS(=O)(=O)c1cnc(-c2c(C#N)c3ccc(OC(F)F)cc3n2-c2ccccc2)nc1)C(F)(F)F", "note": "[compound 611, 2-[3-cyano-6-(difluoromethoxy)-1-phenyl-1H-indol-2-yl]-N-[(2S)-1,1,1-trifluoropropan-2-yl]pyrimidine-5-sulfonamide]", "values": [{"measurement": "IC50", "setting": "[1]", "result": "< 500", "unit": "nM"}, {"measurement": "melting point", "result": "216 to 218", "unit": "°C"}]}, {"smiles": "CC(C)(NS(=O)(=O)c1ccc(-c2c(C#N)c3ccc(OC(F)F)cc3n2-c2ccccc2)nc1)C(F)(F)F", "note": "[compound 612, 6-[3-cyano-6-(difluoromethoxy)-1-phenyl-1H-indol-2-yl]-N-(1,1,1-trifluoro-2-methylpropan-2-yl)pyridine-3-sulfonamide]", "values": [{"measurement": "IC50", "setting": "[1]", "result": "< 500", "unit": "nM"}, {"measurement": "melting point", "result": "218 to 220", "unit": "°C"}]}, {"smiles": "Cc1cc2c(cc1F)c(C#N)c(-c1ccc(S(=O)(=O)NC3(C(F)(F)F)CC3)cn1)n2C1CCC1", "note": "[compound 613, 6-(3-cyano-1-cyclobutyl-5-fluoro-6-methyl-1H-indol-2-yl)-N-[1-(trifluoromethyl)cyclopropyl]pyridine-3-sulfonamide]", "values": [{"measurement": "IC50", "setting": "[1]", "result": "< 500", "unit": "nM"}, {"measurement": "melting point", "result": "223 to 232", "unit": "°C"}]}, {"smiles": "Cc1ccc2c(c1F)c(C#N)c(-c1ccc(S(=O)(=O)NC(C)(C)C(F)(F)F)cn1)n2C1CCCC1", "note": "[compound 614, 6-(3-cyano-1-cyclopentyl-4-fluoro-5-methyl-1H-indol-2-yl)-N-(1,1,1-trifluoro-2-methylpropan-2-yl)pyridine-3-sulfonamide]", "values": [{"measurement": "IC50", "setting": "[1]", "result": "500 to 2000", "unit": "nM"}, {"measurement": "melting point", "result": "200 to 205", "unit": "°C"}]}, {"smiles": "Cc1ccc2c(c1F)c(C#N)c(-c1ccc(S(=O)(=O)N[C@@H](C)C(F)(F)F)cn1)n2C1CCCC1", "note": "[compound 615, 6-(3-cyano-1-cyclopentyl-4-fluoro-5-methyl-1H-indol-2-yl)-N-[(2S)-1,1,1-trifluoropropan-2-yl]pyridine-3-sulfonamide]", "values": [{"measurement": "IC50", "setting": "[1]", "result": "< 500", "unit": "nM"}, {"measurement": "melting point", "result": "186 to 197", "unit": "°C"}]}, {"smiles": "C[C@H](NS(=O)(=O)c1cnc(-c2c(C#N)c3ccc(CC(F)F)cc3n2CC2CC2)nc1)C1CC1", "note": "[compound 619, 2-[3-cyano-1-(cyclopropylmethyl)-6-(2,2-difluoroethyl)-1H-indol-2-yl]-N-[(1S)-1-cyclopropylethyl]pyrimidine-5-sulfonamide]", "values": [{"measurement": "IC50", "setting": "[1]", "result": "< 500", "unit": "nM"}, {"measurement": "melting point", "result": "144 to 150", "unit": "°C"}]}, {"smiles": "N#Cc1c(-c2ncc(S(=O)(=O)NC(CF)CF)cn2)n(CC2CC2)c2cc(CC(F)F)ccc12", "note": "[compound 621, 2-[3-cyano-1-(cyclopropylmethyl)-6-(2,2-difluoroethyl)-1H-indol-2-yl]-N-(1,3-difluoropropan-2-yl)pyrimidine-5-sulfonamide]", "values": [{"measurement": "IC50", "setting": "[1]", "result": "< 500", "unit": "nM"}, {"measurement": "melting point", "result": "180 to 188", "unit": "°C"}]}, {"smiles": "C[C@H](NS(=O)(=O)c1cnc(-c2c(C#N)c3ccc(CC(F)F)cc3n2CC2CC2)nc1)C(F)(F)F", "note": "[compound 622, 2-[3-cyano-1-(cyclopropylmethyl)-6-(2,2-difluoroethyl)-1H-indol-2-yl]-N-[(2S)-1,1,1-trifluoropropan-2-yl]pyrimidine-5-sulfonamide]", "values": [{"measurement": "IC50", "setting": "[1]", "result": "< 500", "unit": "nM"}, {"measurement": "melting point", "result": "195 to 205", "unit": "°C"}]}, {"smiles": "CC(C)(C)NS(=O)(=O)c1ccc(-c2c(C#N)c3ccc(OC(F)F)cc3n2-c2ccccc2)nc1", "note": "[compound 624, N-tert-butyl-6-[3-cyano-6-(difluoromethoxy)-1-phenyl-1H-indol-2-yl]pyridine-3-sulfonamide]", "values": [{"measurement": "IC50", "setting": "[1]", "result": "< 500", "unit": "nM"}, {"measurement": "melting point", "result": "216 to 218", "unit": "°C"}]}, {"smiles": "Cc1cc(F)c2c(C#N)c(-c3ccc(S(=O)(=O)N[C@@H](C)C(F)(F)F)cn3)n(C3CCCC3)c2c1", "note": "[compound 625, 6-(3-cyano-1-cyclopentyl-4-fluoro-6-methyl-1H-indol-2-yl)-N-[(2S)-1,1,1-trifluoropropan-2-yl]pyridine-3-sulfonamide]", "values": [{"measurement": "IC50", "setting": "[1]", "result": "< 500", "unit": "nM"}, {"measurement": "melting point", "result": "207 to 211", "unit": "°C"}]}, {"smiles": "Cc1cc(F)c2c(C#N)c(-c3ccc(S(=O)(=O)NC(C)(C)C(F)(F)F)cn3)n(C3CCCC3)c2c1", "note": "[compound 626, 6-(3-cyano-1-cyclopentyl-4-fluoro-6-methyl-1H-indol-2-yl)-N-(1,1,1-trifluoro-2-methylpropan-2-yl)pyridine-3-sulfonamide]", "values": [{"measurement": "IC50", "setting": "[1]", "result": "< 500", "unit": "nM"}, {"measurement": "melting point", "result": "218 to 223", "unit": "°C"}]}, {"smiles": "Cc1cc(F)c2c(C#N)c(-c3ccc(S(=O)(=O)N[C@@H](C)C(F)(F)F)cn3)n(C3CCC3)c2c1", "note": "[compound 627, 6-(3-cyano-1-cyclobutyl-4-fluoro-6-methyl-1H-indol-2-yl)-N-[(2S)-1,1,1-trifluoropropan-2-yl]pyridine-3-sulfonamide]", "values": [{"measurement": "IC50", "setting": "[1]", "result": "< 500", "unit": "nM"}, {"measurement": "melting point", "result": "205 to 210", "unit": "°C"}]}, {"smiles": "Cc1cc(F)c2c(C#N)c(-c3ccc(S(=O)(=O)NC4(C(F)(F)F)CC4)cn3)n(C3CCCC3)c2c1", "note": "[compound 628, 6-(3-cyano-1-cyclopentyl-4-fluoro-6-methyl-1H-indol-2-yl)-N-[1-(trifluoromethyl)cyclopropyl]pyridine-3-sulfonamide]", "values": [{"measurement": "IC50", "setting": "[1]", "result": "< 500", "unit": "nM"}, {"measurement": "melting point", "result": "242 to 246", "unit": "°C"}]}, {"smiles": "Cc1cc(F)c2c(C#N)c(-c3ccc(S(=O)(=O)NC4(C(F)(F)F)CC4)cn3)n(C3CCC3)c2c1", "note": "[compound 629, 6-(3-cyano-1-cyclobutyl-4-fluoro-6-methyl-1H-indol-2-yl)-N-[1-(trifluoromethyl)cyclopropyl]pyridine-3-sulfonamide]", "values": [{"measurement": "IC50", "setting": "[1]", "result": "2000 to 5000", "unit": "nM"}, {"measurement": "melting point", "result": "241 to 246", "unit": "°C"}]}, {"smiles": "C[C@H](NS(=O)(=O)c1ccc(-c2c(C#N)c3cc(F)c(C4CC4)cc3n2C2CCC2)nc1)C(F)(F)F", "note": "[compound 630, 6-(3-cyano-1-cyclobutyl-6-cyclopropyl-5-fluoro-1H-indol-2-yl)-N-[(2S)-1,1,1-trifluoropropan-2-yl]pyridine-3-sulfonamide]", "values": [{"measurement": "IC50", "setting": "[1]", "result": "< 500", "unit": "nM"}, {"measurement": "melting point", "result": "201 to 203", "unit": "°C"}]}, {"smiles": "C[C@@H](NS(=O)(=O)c1ccc(-c2c(C#N)c3cc(F)c(C4CC4)cc3n2C2CCC2)nc1)C(F)(F)F", "note": "[compound 631, 6-(3-cyano-1-cyclobutyl-6-cyclopropyl-5-fluoro-1H-indol-2-yl)-N-[(2R)-1,1,1-trifluoropropan-2-yl]pyridine-3-sulfonamide]", "values": [{"measurement": "IC50", "setting": "[1]", "result": "< 500", "unit": "nM"}, {"measurement": "melting point", "result": "190 to 194", "unit": "°C"}]}, {"smiles": "CCc1cc2c(cc1F)c(C#N)c(-c1ccc(S(=O)(=O)N[C@H](C)C(F)(F)F)cn1)n2C1CCCC1", "note": "[compound 632, 6-(3-cyano-1-cyclopentyl-6-ethyl-5-fluoro-1H-indol-2-yl)-N-[(2R)-1,1,1-trifluoropropan-2-yl]pyridine-3-sulfonamide]", "values": [{"measurement": "IC50", "setting": "[1]", "result": "< 500", "unit": "nM"}, {"measurement": "melting point", "result": "205.5 to 206", "unit": "°C"}]}]}
